These results are taken from patent US20230116114A1, “COMPOUNDS AND COMPOSITIONS FOR TREATING CNS DISORDERS” (Blue Oak Pharmaceuticals, Inc., priority 2020, published 2023).

Counter-ions that a name gives are not always drawn.

In the assay the test system is mice. The assay is described as follows: SmartCube in vivo neuropharmacological behavioral assay. Particulars: for minimal effective dose: Mus musculus, ip, 0.25 h, dose having 50% or more total activity in SmartCube, i.p., read-out: MED (minimal effective dose); for AD: antidepressant (percent probability) / AG: analgesic (percent probability) / AP: antipsychotic (percent probability) / AX: anxiolytic (percent probability) / CE: cognitive enhancer (percent probability) / HA: hallucinogenic (percent probability) / MS: mood stabilizer (percent probability) / PS (percent probability) / SD: sedative hypnotic (percent probability) / SE: side effects (percent probability) / UN: uncharacterized CNS activity (percent probability) / XG: anxiogenic (percent probability): SmartCube, i.p. 15 min before test, result at the MED. As for the experimental part: The compounds were evaluated for their CNS related properties (e.g., the treatment, prevention or diagnosis of CNS or CNS-related disorders and/or amelioration of symptoms) using neuropharmacological screening methods described in S. L. Roberts et al., Front. Neurosci. 2011, 5:103 (hereinafter referred to as “Roberts,” the contents of which are incorporated herein by reference in their entirety).
According to Roberts, intact systems are useful in detecting improvement in disease-relevant endpoints, because psychiatric diseases generally result from disorders of cell-cell communication or circuitry. The endpoints are typically behavioral in nature, often requiring human observation and interpretation. In order to test multiple compounds for behavioral effects relevant to neurological and psychiatric diseases and disorders, PsychoGenics, Inc. (Paramus, N.J. “PGI”) developed SmartCube®, an automated system in which behaviors of compound-treated mice are captured by digital video and analyzed with computer algorithms to facilitate testing of multiple compounds for behavioral effects relevant to psychiatric disease. (D. Brunner et al., Drug Discov. Today 2002, 7:S107-S112; Alexandrov et al., Eur. J. Pharmacol. 2015, 753:127-134; the contents of each of which are incorporated herein by reference in their entirety).
The SmartCube® system is described in Example 2.2 of U.S. Pat. No. 9,758,529 and Example 289 of WIPO Publication No. WO2018/023070, the contents of each of which are incorporated herein by reference in their entirety.
According to the present disclosure, compounds identified may be evaluated using the SmartCube® system. The results of such analysis correlate certain patterns or combinations of behaviors to CNS effects along a percent probability scale of 0-100 where zero (0) reflects the limit of quantitation (LOQ).
The compounds of the present disclosure were evaluated for their CNS related properties (e.g., the treatment, prevention or diagnosis of CNS or CNS-related disorders and/or amelioration of symptoms) using neuropharmacological screening methods described in S. L. Roberts et al., Front. Neurosci. 2011, 5:103 (hereinafter referred to as “Roberts,” the contents of which are incorporated herein by reference in their entirety).
The SmartCube® system described herein was utilized to compare the behavioral signature of a test compound to a database of behavioral signatures obtained using a large set of diverse reference compounds (including but not limited to antipsychotics, anxiolytics, antidepressants and bipolar disorder medicine), thereby predicting the neuropharmacological effects of a test compound by similarity to major classes of compounds. It produces an activity signature indicating the probability that the activity of the test compound at the administered dose matches a given class of neuropharmacological agents. The test compound is simultaneously compared against multiple classes of agents; thus, a separate probability is generated for each behavioral effect measured (such as but not limited to anxiolytic activity and analgesic activity).
The compounds of the present disclosure were dissolved in a mixture of Pharmasolve™ (N-methyl-2-pyrrolidone (NMP)) and were injected i.p. 15 min. before the behavioral test. For each compound, injections were administered at different dose levels (e.g., 0.3, 1, 3, 10 and 30 mg per kg (mpk)). A compound's minimal effective dose (MED; see Table 3) is a measure of the compound's potency. The MED was defined as the dose (in mpk) having 50% or more total activity in SmartCube®. For each behavioral effect measured, results at the MED are presented. CNS activities of the compounds were recorded (see Table 2). In Table 1, a key to the percent probabilities (probability ×100) for each behavioral effect (“X”) are defined provided, where LOQ is the limit of quantification.

The minimal effective dose is the lowest level tested that produced the effect sought.

As to `c1ccc2c(c1)C1CCCC2N1C1CCOC1` (stereo not shown) [Compound 9, 12-(Oxolan-3-yl)-12-azatricyclo[6.3.1.0^2,7]dodeca-2,4,6-triene hydrochloride], the minimal effective dose lay in the range of 10 to 30 mg/kg, the “AD: antidepressant (percent probability)” value is recorded as “+++ (25% ≤ X < 50%)”, the “AG: analgesic (percent probability)” value is reported as “++ (5% ≤ X < 25%)” and the “AP: antipsychotic (percent probability)” value is listed as “+ (LOQ ≤ X < 5%)”. Also, the “AX: anxiolytic (percent probability)” value is on record as “++ (5% ≤ X < 25%)”, the “CE: cognitive enhancer (percent probability)” value is given as “+ (LOQ ≤ X < 5%)”, the “HA: hallucinogenic (percent probability)” value is listed as “+ (LOQ ≤ X < 5%)” and the “MS: mood stabilizer (percent probability)” value (from here on “MS … (percent probability)”) is “+ (LOQ ≤ X < 5%)”. In addition, the “PS (percent probability)” value was “+ (LOQ ≤ X < 5%)”, the “SD: sedative hypnotic (percent probability)” value (“SD … (percent probability)” for short) was “+ (LOQ ≤ X < 5%)”, the “SE: side effects (percent probability)” value is recorded as “+ (LOQ ≤ X < 5%)” and the “UN: uncharacterized CNS activity (percent probability)” value (“UN … (percent probability)” for short) is reported as “++ (5% ≤ X < 25%)”. In addition, the “XG: anxiogenic (percent probability)” value is given as “++ (5% ≤ X < 25%)”.

For the molecule `c1ccc2c(c1)C1CCCC2N1C1CCC1` [Compound 10, 12-Cyclobutyl-12-azatricyclo[6.3.1.0^2,7]dodeca-2,4,6-triene hydrochloride], the minimal effective dose lay in the range of 1 to 10 mg/kg, the “AD: antidepressant (percent probability)” value is given as “++++ (50% ≤ X < 100%)”, the “AG: analgesic (percent probability)” value is listed as “++ (5% ≤ X < 25%)” and the “AP: antipsychotic (percent probability)” value is listed as “+ (LOQ ≤ X < 5%)”. The “AX: anxiolytic (percent probability)” value is “++ (5% ≤ X < 25%)”, the “CE: cognitive enhancer (percent probability)” value is “+ (LOQ ≤ X < 5%)”, the “HA: hallucinogenic (percent probability)” value is “++ (5% ≤ X < 25%)” and the “MS … (percent probability)” value is listed as “+ (LOQ ≤ X < 5%)”. The “PS (percent probability)” value is reported as “++ (5% ≤ X < 25%)”, the “SD … (percent probability)” value was “+ (LOQ ≤ X < 5%)”, the “SE: side effects (percent probability)” value was “+ (LOQ ≤ X < 5%)” and the “UN … (percent probability)” value is reported as “+ (LOQ ≤ X < 5%)”. The “XG: anxiogenic (percent probability)” value is recorded as “+ (LOQ ≤ X < 5%)”.

Consider `c1ccc2c(c1)CC(N1C3CCCC1c1ccccc13)C2` [Compound 11, 12-(2,3-Dihydro-1H-inden-2-yl)-12-azatricyclo[6.3.1.0^2,7]dodeca-2,4,6-triene hydrochloride], for which the minimal effective dose lay within 10 to 30 mg/kg, the “AD: antidepressant (percent probability)” value is “+ (LOQ ≤ X < 5%)”, the “AG: analgesic (percent probability)” value was “++ (5% ≤ X < 25%)” and the “AP: antipsychotic (percent probability)” value is given as “+ (LOQ ≤ X < 5%)”. Further, the “AX: anxiolytic (percent probability)” value is “++ (5% ≤ X < 25%)”, the “CE: cognitive enhancer (percent probability)” value was “++ (5% ≤ X < 25%)”, the “HA: hallucinogenic (percent probability)” value is given as “+ (LOQ ≤ X < 5%)” and the “MS … (percent probability)” value was “+ (LOQ ≤ X < 5%)”. For the same molecule, the “PS (percent probability)” value is “+ (LOQ ≤ X < 5%)”, the “SD … (percent probability)” value is recorded as “+ (LOQ ≤ X < 5%)”, the “SE: side effects (percent probability)” value is recorded as “+ (LOQ ≤ X < 5%)” and the “UN … (percent probability)” value is listed as “+++ (25% ≤ X < 50%)”. The “XG: anxiogenic (percent probability)” value is reported as “+ (LOQ ≤ X < 5%)”.

As for `CCC(C)N1C2CCCC1c1ccccc12` (stereo not shown) [Compound 12, 12-(Butan-2-yl)-12-azatricyclo[6.3.1.0^2,7]dodeca-2,4,6-triene], the minimal effective dose lay in the range of 1 to 10 mg/kg, the “AD: antidepressant (percent probability)” value was “++ (5% ≤ X < 25%)”, the “AG: analgesic (percent probability)” value is “+ (LOQ ≤ X < 5%)” and the “AP: antipsychotic (percent probability)” value is “+ (LOQ ≤ X < 5%)”. Further, the “AX: anxiolytic (percent probability)” value is “++ (5% ≤ X < 25%)”, the “CE: cognitive enhancer (percent probability)” value is given as “+ (LOQ ≤ X < 5%)”, the “HA: hallucinogenic (percent probability)” value is listed as “+ (LOQ ≤ X < 5%)” and the “MS … (percent probability)” value is given as “+ (LOQ ≤ X < 5%)”. The “PS (percent probability)” value is listed as “+ (LOQ ≤ X < 5%)”, the “SD … (percent probability)” value is on record as “+ (LOQ ≤ X < 5%)”, the “SE: side effects (percent probability)” value was “+ (LOQ ≤ X < 5%)” and the “UN … (percent probability)” value is reported as “+++ (25% ≤ X < 50%)”. For the same molecule, the “XG: anxiogenic (percent probability)” value was “+ (LOQ ≤ X < 5%)”.

As for `c1ccc2c(c1)C1CCCC2N1C1CCCCC1` [Compound 13, 12-Cyclohexyl-12-azatricyclo[6.3.1.0^2,7]dodeca-2,4,6-triene hydrochloride], the minimal effective dose was 10 to 30 mg/kg, the “AD: antidepressant (percent probability)” value is recorded as “+++ (25% ≤ X < 50%)”, the “AG: analgesic (percent probability)” value is reported as “+ (LOQ ≤ X < 5%)” and the “AP: antipsychotic (percent probability)” value is on record as “+ (LOQ ≤ X < 5%)”. Moreover, the “AX: anxiolytic (percent probability)” value is on record as “++ (5% ≤ X < 25%)”, the “CE: cognitive enhancer (percent probability)” value is “+ (LOQ ≤ X < 5%)”, the “HA: hallucinogenic (percent probability)” value is given as “+ (LOQ ≤ X < 5%)” and the “MS … (percent probability)” value is on record as “+ (LOQ ≤ X < 5%)”. In addition, the “PS (percent probability)” value is “++ (5% ≤ X < 25%)”, the “SD … (percent probability)” value was “+ (LOQ ≤ X < 5%)”, the “SE: side effects (percent probability)” value is “+ (LOQ ≤ X < 5%)” and the “UN … (percent probability)” value is given as “+ (LOQ ≤ X < 5%)”. In addition, the “XG: anxiogenic (percent probability)” value is “+ (LOQ ≤ X < 5%)”.

On to `FCC(CF)N1C2CCCC1c1ccccc12` [Compound 14, 12-(1,3-Difluoropropan-2-yl)-12-azatricyclo[6.3.1.0^20.7]dodeca-2,4,6-triene hydrochloride], for which the minimal effective dose fell in the range of 10 to 30 mg/kg, the “AD: antidepressant (percent probability)” value is listed as “++ (5% ≤ X < 25%)”, the “AG: analgesic (percent probability)” value is “+++ (25% ≤ X < 50%)” and the “AP: antipsychotic (percent probability)” value is on record as “+ (LOQ ≤ X < 5%)”. Besides, the “AX: anxiolytic (percent probability)” value is “++ (5% ≤ X < 25%)”, the “CE: cognitive enhancer (percent probability)” value is reported as “+ (LOQ ≤ X < 5%)”, the “HA: hallucinogenic (percent probability)” value is listed as “+ (LOQ ≤ X < 5%)” and the “MS … (percent probability)” value is “+ (LOQ ≤ X < 5%)”. In addition, the “PS (percent probability)” value is listed as “+ (LOQ ≤ X < 5%)”, the “SD … (percent probability)” value was “+ (LOQ ≤ X < 5%)”, the “SE: side effects (percent probability)” value was “+ (LOQ ≤ X < 5%)” and the “UN … (percent probability)” value is recorded as “+ (LOQ ≤ X < 5%)”. The “XG: anxiogenic (percent probability)” value is listed as “+ (LOQ ≤ X < 5%)”.

Regarding `c1ccc2c(c1)C1CCCC2N1C1CC1` [Compound 15, 12-Cyclopropyl-12-azatricyclo[6.3.1.0^20.7]dodeca-2,4,6-triene hydrochloride], the minimal effective dose fell in the range of 10 to 30 mg/kg, the “AD: antidepressant (percent probability)” value was “++++ (50% ≤ X < 100%)”, the “AG: analgesic (percent probability)” value is “++ (5% ≤ X < 25%)” and the “AP: antipsychotic (percent probability)” value was “+ (LOQ ≤ X < 5%)”. Further, the “AX: anxiolytic (percent probability)” value is “++ (5% ≤ X < 25%)”, the “CE: cognitive enhancer (percent probability)” value is “+ (LOQ ≤ X < 5%)”, the “HA: hallucinogenic (percent probability)” value was “+ (LOQ ≤ X < 5%)” and the “MS … (percent probability)” value is on record as “+ (LOQ ≤ X < 5%)”. The “PS (percent probability)” value is “++ (5% ≤ X < 25%)”, the “SD … (percent probability)” value is given as “+ (LOQ ≤ X < 5%)”, the “SE: side effects (percent probability)” value is “+ (LOQ ≤ X < 5%)” and the “UN … (percent probability)” value is recorded as “+ (LOQ ≤ X < 5%)”. In addition, the “XG: anxiogenic (percent probability)” value is “++ (5% ≤ X < 25%)”.
